Earlier results as cited in patent US20130029862A1, “Clinical application utilizing genetic data for effective medication management” (priority 2011, published 2013).

How the values were obtained:
[1] = carriers of C allele compared to T/T homozygotes, ApoE rs7412
[2] = Met/Met (A/A) compared to Val/Val (G/G), COMT rs4680

SMILES | weight gain [1] | response with antidepressant [2]
Cc1cc2c(s1)Nc1ccccc1N=C2N1CCN(C)CC1 [olanzapine] | likely to gain weight on olanzapine | 
Fc1ccc([C@@H]2CCNC[C@H]2COc2ccc3c(c2)OCO3)cc1 [paroxetine] |  | Better response with antidepressant
